We go through six molecules from patent US20150352207A1, “USE OF ANTIBODIES AGAINST ICAM-1 IN COMBINATION WITH AN ANTI CANCER DRUG IN THE TREATMENT OF PATIENTS” (BIOINVENT INTERNATIONAL AB, priority 2013, published 2015).

The subject of series [1] is ICAM-1 on MM cells (CD38+/mCD45-). The experiment in a line: ICAM-1 expression on myeloma cells from treated mice (disseminated RPMI-8226 model, flow cytometry). Type of series: in vivo, SCID mice. The note with it: tumor cells isolated from mice treated with standard of care therapies. The method, then:
Organs for FACS analysis were collected at scarification of mice, and cells from tissues were prepared by mechanistic dissociation and dispase/collagenase enzymatic digestion (Gibco, France). Cells were stained with anti-human CD38 antibody (PerCP-Cy5, Becton Dickinson), an anti-mouse CD45 (PE, Becton Dickinson) and human ICAM-1 (B11 IgG1 AF647, BioInvent) and incubated in the dark for 15 min at room temperature. After the incubation, cells were washed twice and the surface fluorescence of cells was analyzed with a flow cytometer apparatus (LSRII) at the Flow Cytometry Facility of the University of Burgundy.
200 μl containing 10×10^6 of RPMI 8226 tumour cells was intravenously injected into the caudal vein of female SCID mice. The mice had been subjected to a whole body irradiation of mice (1.8 Gy, ^60Co, BioMEP) 24 to 72 hours prior to cell injection. At D1, tumor injected mice were randomized according to their individual body weight. All treatment started day 5 after tumor cell administration except for ALKERAN®, which started at day 10. All treatments were injected in a dose volume of 10 ml/kg/inj. Mice received one of the following treatments:
The health status and behavior of mice was recorded every day and body weight of mice was recorded twice a week. […] Upon termination, bone marrow, spinal cord, adrenal glands and kidneys were collected and examined for ICAM-1 expression on tumor cells. To distinguish cells of human versus murine origin, an anti-mouse CD45 mAb was used CD45. […] In addition, cells were stained with AF647 conjugated anti ICAM-1 mAb and thereafter analyzed in a FACS LSRII. Bone marrow was mechanically dissociated to a single cell suspension whereas adrenal glands, kidneys and spinal cord cells were prepared using a combination of mechanistic dissociation and dispase/collagenase digestion (Gibco, France). Prior to the experiment, dispase and collagenase treatments were shown not to effect ICAM-1 levels on MM cell lines.
In general terms: Flow cytometry measures light scatter and fluorescence of single cells or particles in a stream.

The subject of series [2] is ARH-77 cells. The experiment in a line: Disseminated scid/ARH-77 model of multiple myeloma. Type of series: in vivo, scid mice. The note with it: i.v. on Days 7, 10, 13, 16; antibody 2 mg/kg, bortezomib 0.5 mg/kg; vs control treatment. The method, then:
ARH-77 cells or RPMI-8226 were injected intravenously into the SCID mice. (A) ARH-77 model. Animals received intravenous injections with antibody at 2 mg/kg or bortezomib (Velcade) at 0.5 mg/kg on Days 7, 10, 13, and 16 (as indicated by arrows in the graph). (B) RPMI-8226-model. B11 or control mAb was administered i.v at 2 mg/kg, twice weekly for 8 weeks, bortezomid, at 1 mg/kg, once weekly for 8 weeks, lenalidomide p.o with 2 mg/kg for 2 cycles consisting of 5 days of treatment and 2 days of wash out, melphalan i.v at 3 mg/kg, once weekly for 8 weeks, and dexamethasone (DXH) at 6 mg/kg/inj 3 times/week for 2 consecutive weeks. There were 6-10 mice per treatment group. Statistical significance was calculated using Log-rank Graphpad Prism software and determined at ***p<0.001. (C) To study the ICAM-1 level on human cells, the cells from different organs were stained and gated for CD38+/mCD45−/B11+. Left panel indicates the percentage of B11 positive cells in CD38+/mCD45 population and right panel the mean fluorescent intensity of the positive cells.
The anti-myeloma effect of B11 was examined in a disseminated model of multiple myeloma. The early and advanced disseminated model of multiple myeloma was performed at Oncodesign, Dijon, France. Briefly: 1×10^6 (early) or 5×10^6 (advanced) ARH-77 tumor cells in 200 μL of RPMI 1640 were injected intravenously (i.v) into the caudal vein of female scid mice (D0). Tumor cell injections were performed twenty four to forty eight hours after a whole body irradiation of mice (1.8 Gy, ^60Co, INRA, BRETENNIERES). The treatment was started at D5 RPMI-8226 model or D7 (ARH-77 model) […]. B11 or control mAb was administered i.v. at 2 mg/kg, twice weekly for 8 weeks, bortezomib, at 1 mg/kg, once weekly for 8 weeks, lenalidomide p.o with 2 mg/kg for 2 cycles consisting of 5 days of treatment and 2 days of wash out, melphalan i.v. at 3 mg/kg, once weekly for 8 weeks, and dexamethasone at 6 mg/kg 1 injected 3 times a week for 2 consecutive weeks.
The disseminated model of scid/ARH-77 is a well-established experimental model that resembles human multiple myeloma disease progression and disease manifestation in many respects (33). We utilized this model to further characterize IgG B11 anti-myeloma activity (FIG. 6A). Intravenous injection of irradiated scid mice with 1×10^6 ARH-77 cells was previously shown to result in their dissemination and establishment in mouse bone-marrow, and resulting osteolytic bone-lesions and hypercalcemia, and ultimately, in animal paralysis or difficulty of breathing at which time animals were immediately sacrificed. […]

Series [3] has as its system ICAM-1 expressing tumor cell lines. The experiment in a line: Complement-dependent cytotoxicity (CDC) in tumor cell lines. It counts as cell-based. The note with it: panel of ICAM-1 expressing tumor cell lines. The procedure: Target cells were harvested and incubated in RPMI medium with antibodies at 5 μg/mL or at titrated concentrations between 0.01-100 μg/mL for 60 min on ice. Cells were thereafter washed and resuspended in cold medium before dispension into flow cytometry tubes. Treatments were performed in triplicates. Human serum, normal or heat-inactivated, (Sigma, Sweden) was added to tubes and the samples were incubated for 2 h at 37° C. After completed incubation ToPo-Pro-3 was added at a final concentration of 0.3 μM and cells were analyzed for membrane permeabilization using flow cytometry.

The next series deals with ARH-77 tumors. The experiment in a line: Advanced (established, palpable tumors) scid/ARH-77 xenograft model. The note with it: IgG B11 effective even at 100-fold lower dose (0.2 mg/kg) than rituximab.
The subject of series [4] is ARH-77 cells. The experiment in a line: Subcutaneous scid/ARH-77 xenograft, treatment from the day after cell inoculation (prophylactic model). The note with it: for anti-tumor activities of IgG B11 isotype switch variants (rank order): twice weekly treatment, s.c. ARH-77.
Protocol: Tumor cells were injected subcutaneously into the left flank of SCID mice. Mice received twice-weekly intraperitoneal injections with B11, control antibody or rituximab at doses of 20, 2 and/or 0.2 mg/kg commencing one day after tumor cell inoculation. There were 8 to 10 animals per treatment group. (A) Tumor volume as a function of antibody dose. (B) Kaplan-Meier survival graph as a function of antibody dose. […] Statistical significance was calculated relative to control antibody treatment using Kruskal-Wallis Test (Nonparametric ANOVA) with Dunn's Multiple Comparisons Test (tumor volume) or the log-rank test (mouse survival) using Graphpad Instat or Prism software, respectively. Statistical significance was considered for *p<0.05, **p<0.01, and ***p<0.001.
Tumor cells were injected subcutaneously into the left flank of SCID mice. Mice received twice-weekly intraperitoneal injections with B11 at doses of 0.02-20 mg/kg commencing day after tumor cell inoculation. There were 8-10 animals per treatment group. (A) Tumor volume as a function of antibody dose. (B) Kaplan-Meier survival graph as a function of antibody dose. Statistical significance was calculated relative to control antibody treatment using Kruskal-Wallis Test (Nonparametric ANOVA) with Dunn's Multiple Comparisons Test (tumor volume) or the log-rank test (mouse survival) using Graphpad Instat or Prism software, respectively. Statistical significance was considered for *p<0.05, **p<0.01, and ***p<0.001. Graphs illustrate representative experiments out of several performed.
(A) ARH-77 cells were injected subcutaneously into the left flank of SCID mice (n=8 per group). Mice were treated with the different B11 isotypes twice weekly. […] Statistical significance was calculated relative to control antibody treatment using Kruskal-Wallis Test (Nonparametric ANOVA) with Dunn's Multiple Comparisons Test. Statistical significance was considered for *p<0.05, **p<0.01, and ***p<0.001.
Mice were anaesthetized with a mixture of sevofluran and oxygen prior to myeloma cell inoculation and 1-5×10^6 myeloma cells were then subcutaneously injected in a volume of 100 μl into the left flank. Treatment with antibodies by intraperitonial (i.p.) injections was started either the day after cell inoculation (prophylactic model) or when tumors reached a size of approximately 100 mm^3 (established model).
Series [5] in a line: Serum antibody levels of treated xenografted mice (ELISA). It counts as in vivo. The note with it: Dose 2 mg/kg; serum at end of experimentation. The method, then:
We next performed a dose-titration experiment to establish IgG B11 in vivo potency and the minimal dose achieving maximal anti-tumor activity, using the scid/ARH-77 model system. […] Mouse serum antibody trough concentrations were determined by ELISA at the end of experimentation. Trough antibody concentrations were then plotted against percent of maximal in vivo anti-tumour activity, and against percent of maximal ICAM-1 receptor occupancy and tumour cell PCD at corresponding antibody concentrations in vitro (FIGS. 3C, 3D, 3E, 3F and 3G). Strikingly, a near perfect correlation between antibody concentration and in vitro tumour cell receptor occupancy, in vitro tumor cell PCD, and in vivo anti-tumour activity was observed, consistent with ICAM-1 dependent direct cell cytotoxicity underlying in vivo anti-tumour activity.
In general terms: An ELISA detects its analyte on a solid surface through an enzyme-linked reagent.

For a further series, the target named is T1, human FcγRIIIa (Homo sapiens, UniProt P08637).
T1 construct: made in house; host or cells: HEK293E (transient, adherent)
T1 sequence (P08637 17-254): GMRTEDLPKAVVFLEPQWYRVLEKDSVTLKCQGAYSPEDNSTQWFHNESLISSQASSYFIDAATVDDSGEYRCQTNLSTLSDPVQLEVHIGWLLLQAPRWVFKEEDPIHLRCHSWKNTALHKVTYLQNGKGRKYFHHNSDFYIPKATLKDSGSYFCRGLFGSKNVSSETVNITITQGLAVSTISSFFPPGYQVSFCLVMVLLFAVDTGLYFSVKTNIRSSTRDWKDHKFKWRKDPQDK
As to the kind of experiment: B11 isotype variant binding to FcγR (Biacore), human FcγRIIIa. The procedure:
His-tagged human FcγRIIIa or mouse FcγRIV were expressed transient in adherent HEK293E cells, purified using Ni-NTA chromatography and characterized using SDS-PAGE and/or Biacore. Surface plasmon resonance (SPR) measurements were performed using a Biacore 3000 instrument. Goat α-human-F(ab)′2 F(ab)′2 fragment (Jackson laboratories) was immobilised with a CM-5 chip using a standard amine coupling protocol. IgG1 B11, IgG4 B11, or 297Q B11 were diluted to 15 and 60 μg/mL respectively and added to the surface at […] for 3 min. His tagged human FcγRIIIa or mouse FcγRIV were pre-incubated with an α-HIS antibody (R&D Systems) at a 2:1 molar ratio before addition to the chip surface, 30 μL/min, 1 min. After each cycle the surface was regenerated twice with glycine buffer pH 1.7.
For orientation: Surface plasmon resonance follows binding to a sensor surface in real time, without labels.

The subject of series [6] is B lymphoma cell line (CL-01). The experiment in a line: Antibody-dependent cell-mediated cytotoxicity (ADCC) with natural killer effector cells. It counts as cell-based. The note with it: human Natural Killer effector cells. From the text: Buffy coats from human donors (ordered through Blodcentralen, Lund) were used to isolate peripheral blood mononuclear cells (PBMCs), and subsequently NK cells. Briefly, peripheral blood components were separated using Ficoll Paque PLUS (Amersham Biosciences, Sweden) in LeucoSep tubes (Greiner Bio-One). The PBMC fraction was removed and thoroughly washed in ice-cold DPBS (Invitrogen), before magnetic labeling and separation of the NK cell population using positive or negative NK cell isolation kits and MACS LS columns (Miltenyi Biotec). The purity of the obtained NK cell fractions was analyzed using flow cytometry, after staining with α-CD56 antibodies (BD Biosciences). Target cells were harvested, and incubated in medium with or without the respective antibodies (2 μg/mL) for 60 min on ice. Cells were thereafter washed and resuspended in cold medium before dispension into FACS tubes. Subsequently, isolated NK cells were diluted in ADCC medium and dispensed together with the respective antibody-coated target cells at varying effector/target cell ratios (40:1, 20:1, 5:1 and 1:1). All experiments were performed in triplicates. After completed incubation ToPo-Pro-3 dye and counting beads (Invitrogen) were added and cells were analyzed for membrane permeabilization using flow cytometry.

Protocol for ARH-77 tumors: Mice were anaesthetized with a mixture of sevofluran and oxygen prior to myeloma cell inoculation and 1-5×10^6 myeloma cells were then subcutaneously injected in a volume of 100 μl into the left flank. Treatment with antibodies by intraperitonial (i.p.) injections was started either the day after cell inoculation (prophylactic model) or when tumors reached a size of approximately 100 mm^3 (established model). Antibodies were administrated in PBS in a total volume of 200 μL. Treatment with PBS or isotype control was used as control. Tumors were measured with a digital calliper and the tumor volumes were calculated according to formula: width^2×length×0.52. Animals were sacrificed when the tumor sizes reached the ethical limit of 1.5 cm. Surviving mice were sacrificed after a maximum of 5 months. Blood samples collected from the vena cava were centrifuged at 2500 g for 15 min to obtain serum and the samples were stored at −20° C. Tumors were removed for immunohistochemistry, snap frozen and were kept at −85° C.

`CC(C)C[C@H](NC(=O)[C@H](Cc1ccccc1)NC(=O)c1cnccn1)B(O)O` [bortezomib, reference compound]: the “ICAM-1 expression on tumor cells after treatment” value (“ICAM-1 expression on tumor cells” for short) in series [1] (listed as VELCADE®) is listed as “still expressed at unchanged, high levels”; in series [1] (listed as bortesomib) it was “retained”. For the same molecule, the animal survival result with ARH-77 cells [2] was “did not significantly enhance animal survival”. For the same molecule, the “time to symptomatic disease onset” value in the series on ARH-77 cells [2] is listed as “insignificantly delayed disease onset”.
On to rituximab [reference compound], for which the “induction of CDC” value in series [3] was “effectively induced CDC”. Besides, in the series with ARH-77 tumors, the animal survival entry is reported as “incapable of reducing tumor growth or promoting animal survival” and the tumor growth entry is listed as “incapable of reducing tumor growth”. In addition, in the series on ARH-77 cells [4] (20 mg/kg twice weekly i.p., commencing one day after tumor cell inoculation), the tumor growth entry is reported as “significant anti-tumor activity albeit less efficaciously so compared to IgG B11”.
`Nc1cccc2c1CN(C1CCC(=O)NC1=O)C2=O` (centres unmarked) [lenalidomide]: the “ICAM-1 expression on tumor cells” value in series [1] (listed as Revlimid®) is on record as “still expressed at unchanged, high levels”; in series [1] (listed as revlimid), “retained”.
Turning to `N[C@@H](Cc1ccc(N(CCCl)CCCl)cc1)C(=O)O` [melphalan], the “ICAM-1 expression on tumor cells” value in series [1] (listed as AIKERAN®) is “still expressed at unchanged, high levels”; in series [1] (listed as alkeran), “retained”.

B1: 297Q B11: FcγR-binding deficient mutant IgG1 (N297Q IgG1) isotype switch variant of B11 (antibody, V domains shown)
VH: EVQLLESGGGLVQPGGSLRLSCAASGFTFSNAWMSWVRQAPGKGLEWVAFIWYDGSNKYYADSVKGRFTISRDNSKNTLYLQMNSLRAEDTAVYYCARYSGWYFDYWGQGTLVTVSS
VL: QSVLTQPPSASGTPGQRVTISCTGSSSNIGAGYDVHWYQQLPGTAPKLLIYDNNNRPSGVPDRFSGSKSGTSASLAISGLRSEDEADYYCQSYDSSLSAWLFGGGTKLTVLG
Consider B1, for which, in series [5], the “In vivo IgG Levels” value came to 9.6 ± 3. μg/mL. Further, in the series with ARH-77 cells [4], the “anti-tumor activities of IgG B11 isotype switch variants (rank order)” value was “increased in the order of IgG1N297Q<IgG4<IgG1”. The “binding to human FcγRIIIa” value with human FcγRIIIa is reported as “did not bind to human FcγRIIIa”. Further, the “ADCC of target tumor cells” value in series [6] is reported as “did not mediate ADCC of target tumor cells”.

B2: IgG4 B11: human IgG4 isotype switch variant of B11 (antibody, V domains shown)
VH: EVQLLESGGGLVQPGGSLRLSCAASGFTFSNAWMSWVRQAPGKGLEWVAFIWYDGSNKYYADSVKGRFTISRDNSKNTLYLQMNSLRAEDTAVYYCARYSGWYFDYWGQGTLVTVSS
VL: QSVLTQPPSASGTPGQRVTISCTGSSSNIGAGYDVHWYQQLPGTAPKLLIYDNNNRPSGVPDRFSGSKSGTSASLAISGLRSEDEADYYCQSYDSSLSAWLFGGGTKLTVLG
Turning to B2, the “In vivo IgG Levels” value in series [5] amounted to 13 ± 3.1 µg/mL. The “anti-tumor activities of IgG B11 isotype switch variants (rank order)” value in the series on ARH-77 cells [4] was “increased in the order of IgG1N297Q<IgG4<IgG1”. The “binding to human FcγRIIIa” value with human FcγRIIIa is given as “did not bind to human FcγRIIIa”. For the same molecule, in series [6], the “ADCC of target tumor cells” value was “did not mediate ADCC of target tumor cells”.
